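Step 1: Grow cells in 96-well plates. Step 2: Expose to compound for 48 hours at 5 concentrations. Step 3: Interpolate endpoints linearly; if unreached, use highest concentration. TGI: total growth inhibition.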
Columns and labels:
Experiment in all cases: growth of human tumour cells (NCI), 48 h
UACC-62 melanoma = test system: UACC-62 melanoma
CCRF-CEM leukemia = test system: CCRF-CEM leukemia
UO-31 renal = test system: UO-31 renal
SF-295 CNS = test system: SF-295 CNS
LOX IMVI melanoma = test system: LOX IMVI melanoma
MDA-MB-435 = test system: MDA-MB-435
M14 melanoma = test system: M14 melanoma
UACC-257 melanoma = test system: UACC-257 melanoma
MALME-3M melanoma = test system: MALME-3M melanoma
NCI-H460 lung = test system: NCI-H460 lung
SK-MEL-2 melanoma = test system: SK-MEL-2 melanoma
OVCAR-3 ovarian = test system: OVCAR-3 ovarian
CAKI-1 renal = test system: CAKI-1 renal
EKVX NSCLC = test system: EKVX NSCLC
COLO 205 colon = test system: COLO 205 colon
HS 578T breast = test system: HS 578T breast
U251 CNS = test system: U251 CNS
A549 NSCLC = test system: A549 NSCLC
HCT-116 colon = test system: HCT-116 colon
PC-3 prostate = test system: PC-3 prostate
HCT-15 colon = test system: HCT-15 colon
BT-549 breast = test system: BT-549 breast
SK-OV-3 ovarian = test system: SK-OV-3 ovarian
NCI/ADR-RES ovarian = test system: NCI/ADR-RES ovarian
DU-145 prostate = test system: DU-145 prostate
OVCAR-8 ovarian = test system: OVCAR-8 ovarian
OVCAR-5 ovarian = test system: OVCAR-5 ovarian
786-0 renal = test system: 786-0 renal
KM12 colon = test system: KM12 colon
ACHN renal = test system: ACHN renal
TK-10 renal = test system: TK-10 renal
NCI-H23 lung = test system: NCI-H23 lung
SN12C renal = test system: SN12C renal
HL-60(TB) leukemia = test system: HL-60(TB) leukemia
MDA-N = test system: MDA-N
HOP-92 NSCLC = test system: HOP-92 NSCLC
SF-268 CNS = test system: SF-268 CNS
MCF7 breast = test system: MCF7 breast
SNB-19 CNS = test system: SNB-19 CNS
NCI-H522 lung = test system: NCI-H522 lung
RPMI-8226 leukemia = test system: RPMI-8226 leukemia
OVCAR-4 ovarian = test system: OVCAR-4 ovarian
HT29 colon = test system: HT29 colon
SK-MEL-5 melanoma = test system: SK-MEL-5 melanoma
A498 renal = test system: A498 renal
MOLT-4 leukemia = test system: MOLT-4 leukemia
SR leukemia = test system: SR leukemia
HOP-62 NSCLC = test system: HOP-62 NSCLC
SW-620 colon = test system: SW-620 colon
IGROV1 ovarian = test system: IGROV1 ovarian
MDA-MB-231 breast = test system: MDA-MB-231 breast
HCC-2998 colon = test system: HCC-2998 colon
T-47D breast = test system: T-47D breast
SNB-75 CNS = test system: SNB-75 CNS
RXF 393 renal = test system: RXF 393 renal
SK-MEL-28 melanoma = test system: SK-MEL-28 melanoma
K-562 leukemia = test system: K-562 leukemia
NCI-H226 lung = test system: NCI-H226 lung
SF-539 CNS = test system: SF-539 CNS

In the case of `O=C1C(c2c(O)[nH]c3ccccc23)=Nc2ccc(Br)cc21`, the TGI (UACC-62 melanoma) was 54 µM, the TGI (CCRF-CEM leukemia) was greater than 100 µM and the TGI (UO-31 renal) was 70.7 µM. It also gave a TGI (SF-295 CNS) of 89.6 µM, a TGI (LOX IMVI melanoma) greater than 100 µM and a TGI (MDA-MB-435) greater than 100 µM. For the same compound, the TGI (M14 melanoma) was greater than 100 µM, the TGI (UACC-257 melanoma) was greater than 100 µM and the TGI (MALME-3M melanoma) was greater than 100 µM. The TGI (NCI-H460 lung) was greater than 100 µM, the TGI (SK-MEL-2 melanoma) was 93.9 µM and the TGI (OVCAR-3 ovarian) was greater than 100 µM. It also gave a TGI (CAKI-1 renal) greater than 100 µM, a TGI (EKVX NSCLC) of 61.1 µM and a TGI (COLO 205 colon) greater than 100 µM. For the same compound, the TGI (HS 578T breast) was 72.8 µM, the TGI (U251 CNS) was 48 µM and the TGI (A549 NSCLC) was greater than 100 µM. The TGI (HCT-116 colon) was greater than 100 µM, the TGI (PC-3 prostate) was 49.7 µM and the TGI (HCT-15 colon) was greater than 100 µM. The TGI (BT-549 breast) was 77.2 µM, the TGI (SK-OV-3 ovarian) was greater than 100 µM and the TGI (NCI/ADR-RES ovarian) was greater than 100 µM. It also gave a TGI (DU-145 prostate) greater than 100 µM, a TGI (OVCAR-8 ovarian) of 49.4 µM and a TGI (OVCAR-5 ovarian) greater than 100 µM. For the same compound, the TGI (786-0 renal) was 28.8 µM, the TGI (KM12 colon) was greater than 100 µM and the TGI (ACHN renal) was 77 µM. It also gave a TGI (TK-10 renal) of 65.2 µM, a TGI (NCI-H23 lung) greater than 100 µM and a TGI (SN12C renal) greater than 100 µM. The TGI (HL-60(TB) leukemia) was greater than 100 µM, the TGI (MDA-N) was greater than 100 µM and the TGI (HOP-92 NSCLC) was 50.4 µM. For the same compound, the TGI (SF-268 CNS) was 90.2 µM, the TGI (MCF7 breast) was 18.2 µM and the TGI (SNB-19 CNS) was 76.2 µM. The TGI (NCI-H522 lung) was greater than 100 µM, the TGI (RPMI-8226 leukemia) was greater than 100 µM and the TGI (OVCAR-4 ovarian) was 69.5 µM. It also gave a TGI (HT29 colon) greater than 100 µM, a TGI (SK-MEL-5 melanoma) greater than 100 µM and a TGI (A498 renal) of 21 µM. It also gave a TGI (MOLT-4 leukemia) of 40.8 µM, a TGI (SR leukemia) greater than 100 µM and a TGI (HOP-62 NSCLC) of 74.1 µM. It also gave a TGI (SW-620 colon) greater than 100 µM, a TGI (IGROV1 ovarian) greater than 100 µM and a TGI (MDA-MB-231 breast) of 77 µM. The TGI (HCC-2998 colon) was greater than 100 µM, the TGI (T-47D breast) was greater than 100 µM and the TGI (SNB-75 CNS) was 34.9 µM. It also gave a TGI (RXF 393 renal) of 31 µM, a TGI (SK-MEL-28 melanoma) greater than 100 µM and a TGI (K-562 leukemia) greater than 100 µM. The TGI (NCI-H226 lung) was 68.1 µM.
`C/C=N\n1c(C)c(C#N)c(C#N)c1N` was tested, and the TGI (UACC-62 melanoma) was greater than 100 µM, the TGI (CCRF-CEM leukemia) was greater than 100 µM and the TGI (UO-31 renal) was greater than 100 µM. The TGI (SF-295 CNS) was greater than 100 µM, the TGI (LOX IMVI melanoma) was greater than 100 µM and the TGI (MDA-MB-435) was greater than 100 µM. For the same compound, the TGI (M14 melanoma) was greater than 100 µM, the TGI (UACC-257 melanoma) was greater than 100 µM and the TGI (MALME-3M melanoma) was greater than 100 µM. The TGI (SK-MEL-2 melanoma) was greater than 100 µM, the TGI (OVCAR-3 ovarian) was greater than 100 µM and the TGI (CAKI-1 renal) was greater than 100 µM. The TGI (EKVX NSCLC) was greater than 100 µM, the TGI (COLO 205 colon) was greater than 100 µM and the TGI (HS 578T breast) was greater than 100 µM. It also gave a TGI (U251 CNS) greater than 100 µM, a TGI (A549 NSCLC) greater than 100 µM and a TGI (HCT-116 colon) greater than 100 µM. For the same compound, the TGI (PC-3 prostate) was greater than 100 µM, the TGI (HCT-15 colon) was greater than 100 µM and the TGI (BT-549 breast) was greater than 100 µM. For the same compound, the TGI (SK-OV-3 ovarian) was greater than 100 µM, the TGI (NCI/ADR-RES ovarian) was greater than 100 µM and the TGI (DU-145 prostate) was greater than 100 µM. It also gave a TGI (OVCAR-8 ovarian) greater than 100 µM, a TGI (OVCAR-5 ovarian) greater than 100 µM and a TGI (786-0 renal) greater than 100 µM. It also gave a TGI (KM12 colon) greater than 100 µM, a TGI (ACHN renal) greater than 100 µM and a TGI (TK-10 renal) greater than 100 µM. It also gave a TGI (NCI-H23 lung) greater than 100 µM, a TGI (SN12C renal) greater than 100 µM and a TGI (HL-60(TB) leukemia) greater than 100 µM. The TGI (MDA-N) was greater than 100 µM, the TGI (HOP-92 NSCLC) was greater than 100 µM and the TGI (SF-268 CNS) was greater than 100 µM. The TGI (MCF7 breast) was greater than 100 µM, the TGI (SNB-19 CNS) was greater than 100 µM and the TGI (NCI-H522 lung) was greater than 100 µM. The TGI (RPMI-8226 leukemia) was greater than 100 µM, the TGI (OVCAR-4 ovarian) was greater than 100 µM and the TGI (HT29 colon) was greater than 100 µM. It also gave a TGI (SK-MEL-5 melanoma) greater than 100 µM, a TGI (A498 renal) greater than 100 µM and a TGI (MOLT-4 leukemia) greater than 100 µM. The TGI (SR leukemia) was greater than 100 µM, the TGI (SF-539 CNS) was greater than 100 µM and the TGI (HOP-62 NSCLC) was greater than 100 µM. For the same compound, the TGI (SW-620 colon) was greater than 100 µM, the TGI (IGROV1 ovarian) was greater than 100 µM and the TGI (MDA-MB-231 breast) was greater than 100 µM. It also gave a TGI (HCC-2998 colon) greater than 100 µM, a TGI (T-47D breast) greater than 100 µM and a TGI (SNB-75 CNS) greater than 100 µM. For the same compound, the TGI (RXF 393 renal) was greater than 100 µM, the TGI (K-562 leukemia) was greater than 100 µM and the TGI (NCI-H226 lung) was greater than 100 µM.
